Laboratory results taken from ChEMBL document CHEMBL1629662, “Antimicrobial activity of prulifloxacin tested against a worldwide collection of gastroenteritis-producing pathogens, including those causing traveler's diarrhea” (2009).
≈ marks a conversion by molar mass, not a printed value.

Experiments:
Campylobacter coli = experiment: Antibacterial activity against Campylobacter coli by broth microdilution method; assay type: functional
Campylobacter jejuni [1] = experiment: Antibacterial activity against Campylobacter jejuni assessed as percent resistant isolates by broth microdilution method; assay type: functional; conditions: pooled result: one value given for 2 cell lines, strains, targets or settings
Campylobacter jejuni [2] = experiment: Antibacterial activity against Campylobacter jejuni by broth microdilution method; assay type: functional
Campylobacter jejuni [3] = experiment: Antibacterial activity against Campylobacter jejuni assessed as percent susceptible isolates by broth microdilution method; assay type: functional; conditions: pooled result: one value given for 2 cell lines, strains, targets or settings
Aeromonas hydrophila = experiment: Antibacterial activity against Aeromonas hydrophila by broth microdilution method; assay type: functional
Aeromonas sobria = experiment: Antibacterial activity against Aeromonas sobria by broth microdilution method; assay type: functional
Shigella sonnei = experiment: Antibacterial activity against Shigella sonnei by broth microdilution method; assay type: functional
Escherichia coli = experiment: Antibacterial activity against Escherichia coli by broth microdilution method; assay type: functional
Shigella flexneri = experiment: Antibacterial activity against Shigella flexneri by broth microdilution method; assay type: functional
Aeromonas caviae = experiment: Antibacterial activity against Aeromonas caviae by broth microdilution method; assay type: functional
Salmonella typhimurium = experiment: Antibacterial activity against Salmonella enterica serovar Typhimurium by broth microdilution method; assay type: functional, Salmonella enterica subsp. enterica serovar Typhimurium
Vibrio parahaemolyticus = experiment: Antibacterial activity against Vibrio parahaemolyticus by broth microdilution method; assay type: functional
Salmonella enteritidis = experiment: Antibacterial activity against Salmonella enterica serovar Enteritidis by broth microdilution method; assay type: functional, Salmonella enterica subsp. enterica serovar Enteritidis
Vibrio sp. = experiment: Antibacterial activity against Vibrio sp. by broth microdilution method; assay type: functional
Vibrio alginolyticus = experiment: Antibacterial activity against Vibrio alginolyticus by broth microdilution method; assay type: functional
Vibrio fluvialis = experiment: Antibacterial activity against Vibrio fluvialis by broth microdilution method; assay type: functional
Shigella dysenteriae = experiment: Antibacterial activity against Shigella dysenteriae by broth microdilution method; assay type: functional
Yersinia enterocolitica = experiment: Antibacterial activity against Yersinia enterocolitica by broth microdilution method; assay type: functional
Vibrio cholerae = experiment: Antibacterial activity against Vibrio cholerae by broth microdilution method; assay type: functional
Plesiomonas shigelloides = experiment: Antibacterial activity against Plesiomonas shigelloides by broth microdilution method; assay type: functional
[4] = system: Yersinia pseudotuberculosis; experiment: Antibacterial activity against Yersinia pseudotuberculosis by broth microdilution method; assay type: functional
Shigella boydii = experiment: Antibacterial activity against Shigella boydii by broth microdilution method; assay type: functional
Vibrio vulnificus = experiment: Antibacterial activity against Vibrio vulnificus by broth microdilution method; assay type: functional
Aeromonas veronii = experiment: Antibacterial activity against Aeromonas veronii by broth microdilution method; assay type: functional

`CC[C@H]1OC(=O)[C@H](C)[C@@H](O[C@H]2C[C@@](C)(OC)[C@@H](O)[C@H](C)O2)[C@H](C)[C@@H](O[C@@H]2O[C@H](C)C[C@H](N(C)C)[C@H]2O)[C@](C)(O)C[C@@H](C)C(=O)[C@H](C)[C@@H](O)[C@]1(C)O` [ERYTHROMYCIN] was tested, and the MIC50 (Campylobacter coli) was 0.25 µg/mL (≈ 0.341 µM), the MIC90 (Campylobacter coli) was 0.5 µg/mL (≈ 0.681 µM) and the Activity (Campylobacter jejuni [1]) was 0%. The MIC50 (Campylobacter jejuni [2]) was 0.25 µg/mL (≈ 0.341 µM), the MIC90 (Campylobacter jejuni [2]) was 0.5 µg/mL (≈ 0.681 µM) and the Activity (Campylobacter jejuni [3]) was 100%.

Work on `CO[C@H]1/C=C/O[C@@]2(C)Oc3c(C)c(O)c4c(O)c(c5c(nc6cc(C)ccn65)c4c3C2=O)NC(=O)/C(C)=C\C=C\[C@H](C)[C@H](O)[C@@H](C)[C@@H](O)[C@@H](C)[C@H](OC(C)=O)[C@@H]1C` [RIFAXIMIN] yielded an MIC50 (Aeromonas hydrophila) of 4 µg/mL (≈ 5.09 µM), an MIC90 (Aeromonas hydrophila) of 8 µg/mL (≈ 10.2 µM) and an MIC50 (Campylobacter coli) of 32 µg/mL (≈ 40.7 µM). It also gave an MIC90 (Campylobacter coli) of 32 µg/mL (≈ 40.7 µM), an MIC50 (Aeromonas sobria) of 4 µg/mL (≈ 5.09 µM) and an MIC90 (Aeromonas sobria) of 8 µg/mL (≈ 10.2 µM). It also gave an MIC50 (Shigella sonnei) of 8 µg/mL (≈ 10.2 µM), an MIC90 (Shigella sonnei) of 16 µg/mL (≈ 20.4 µM) and an MIC50 (Escherichia coli) of 8 µg/mL (≈ 10.2 µM). For the same compound, the MIC90 (Escherichia coli) was 16 µg/mL (≈ 20.4 µM), the MIC50 (Shigella flexneri) was 8 µg/mL (≈ 10.2 µM) and the MIC90 (Shigella flexneri) was 16 µg/mL (≈ 20.4 µM). The MIC50 (Aeromonas caviae) was 4 µg/mL (≈ 5.09 µM), the MIC90 (Aeromonas caviae) was 8 µg/mL (≈ 10.2 µM) and the MIC50 (Salmonella typhimurium) was 8 µg/mL (≈ 10.2 µM). For the same compound, the MIC90 (Salmonella typhimurium) was 16 µg/mL (≈ 20.4 µM), the MIC50 (Vibrio parahaemolyticus) was 0.5 µg/mL (≈ 0.636 µM) and the MIC90 (Vibrio parahaemolyticus) was 1 µg/mL (≈ 1.27 µM). It also gave an MIC50 (Salmonella enteritidis) of 8 µg/mL (≈ 10.2 µM), an MIC90 (Salmonella enteritidis) of 16 µg/mL (≈ 20.4 µM) and an MIC50 (Vibrio sp.) of 0.5 µg/mL (≈ 0.636 µM). For the same compound, the MIC90 (Vibrio sp.) was 1 µg/mL (≈ 1.27 µM), the MIC50 (Vibrio alginolyticus) was 0.5 µg/mL (≈ 0.636 µM) and the MIC90 (Vibrio alginolyticus) was 1 µg/mL (≈ 1.27 µM). It also gave an MIC50 (Vibrio fluvialis) of 0.5 µg/mL (≈ 0.636 µM), an MIC90 (Vibrio fluvialis) of 1 µg/mL (≈ 1.27 µM) and an MIC50 (Shigella dysenteriae) of 8 µg/mL (≈ 10.2 µM). The MIC90 (Shigella dysenteriae) was 16 µg/mL (≈ 20.4 µM), the MIC50 (Yersinia enterocolitica) was 4 µg/mL (≈ 5.09 µM) and the MIC90 (Yersinia enterocolitica) was 8 µg/mL (≈ 10.2 µM). For the same compound, the MIC50 (Vibrio cholerae) was 0.5 µg/mL (≈ 0.636 µM), the MIC90 (Vibrio cholerae) was 1 µg/mL (≈ 1.27 µM) and the MIC50 (Campylobacter jejuni [2]) was 32 µg/mL (≈ 40.7 µM). For the same compound, the MIC90 (Campylobacter jejuni [2]) was 32 µg/mL (≈ 40.7 µM), the MIC (Plesiomonas shigelloides) was 8 µg/mL (≈ 10.2 µM) and the MIC50 (Plesiomonas shigelloides) was 8 µg/mL (≈ 10.2 µM). The MIC50 [4] was 4 µg/mL (≈ 5.09 µM), the MIC90 [4] was 8 µg/mL (≈ 10.2 µM) and the MIC50 (Shigella boydii) was 8 µg/mL (≈ 10.2 µM). The MIC90 (Shigella boydii) was 16 µg/mL (≈ 20.4 µM), the MIC50 (Vibrio vulnificus) was 0.5 µg/mL (≈ 0.636 µM) and the MIC90 (Vibrio vulnificus) was 1 µg/mL (≈ 1.27 µM). For the same compound, the MIC50 (Aeromonas veronii) was 4 µg/mL (≈ 5.09 µM) and the MIC90 (Aeromonas veronii) was 8 µg/mL (≈ 10.2 µM).
